# “And” between values parts separate entries of the source, which are not always exact repeats. Identical values can stand only once.
# Tests used:
# Type in all cases: cell-based, human
# [1] = test system: NZM11 (BRAF V600E mutant metastatic melanoma) cells; assay: Sulforhodamine B (SRB) assay of viability / proliferation, auranofin conjugates (Example 8)
# Experimental: FIG. 8: Effect of 136 and 137 (auranofin conjugates) on viability of NZM11 melanoma cells. Cells were incubated with 136 and 137 at 10 μM final concentration and kept at 37 °C for 48 hours. Pantothenic acid (PA), CJ-15,801, and biotin were tested at 200 μM final concentration. […] Two batches of auranofin were tested at 10 μM final concentration.
# FIG. 9: The viability data from FIG. 8 was normalised to the treatment plate and DMSO control and plotted as a percentage of cell growth. Individual data points represent technical replicates. Curve indicates non-linear regression slope, which allows determination of IC50 values.
# Materials and methods: NZM11 cells were cultured in MEMα media with an initial count of 1020 cells/μL. The cells were then diluted to get 25 cells per μL and 200 μL of this suspension (5000 cells per well), dispensed into 96 well plates and left to settle for 24 hours. 10 mM stock solutions of 136, 137, and auranofin were diluted with 1% FBS MEMα media to give 10 nM, 30 nM, 100 nM, 300 nM, 1 μM, 3 μM, 10 μM, 30 μM and 100 μM solutions. After 24 hours the media was removed from the 96 well plates. To individual wells 200 μL of each dilution were dispensed in triplicate for three groups (136, 137, and auranofin): 1% FBS MEMα media only (DMSO control), 10 nM, 30 nM, 100 nM, 300 nM, 1 μM, 3 μM, 10 μM, 30 μM and 100 μM. The cells were incubated at 37 °C, 5% 02 and 5% CO2 for 48 hours.
# In order to test the potency of 136 and 137, the IC50 values were calculated for these auranofin conjugates. For analysis of the treatment plate (Tz) a SRB assay was utilised. For this assay, 50 μL of 50% (w/v) ice-cold trichloroacetic acid (TCA) was added to each well. To achieve this, 5 g of TCA was made up to 10 mL with milliQ H2O. This was cooled on ice. Incubation was carried out for 1 hour at 4 °C to fix cells. TCA and media were removed from cells. Five milliQ washes were carried out and the plate was left to air dry. Next, 50 μL of 0.4% SRB solution (prepared in 1% acetic acid) was added to each well and incubated for 10 minutes at room temperature. The SRB solution was removed and five milliQ washes were carried out. Then, 100 μL of 10 mM Tris solution was added to each well, and the dye was solubilised. Absorbance at 515 nm was read on plate reader. Data was normalized to Tz plate, as per NCI60 screening method (https://dtp.cancer.gov/discovery_development/nci-60/methodology.htm).
# [2] = test system: NZM40 (NRAS Q16H) melanoma cells; assay: FACS uptake of BODIPY FL conjugates, 200 nM, 5 min (Example 2)
# Experimental: FIG. 2. Conjugate compounds coupled to BODIPY FL were tested for uptake using 200 nM each conjugate and 5 minute incubation with melanoma cell line NZM11 (BRAF V600E mutant metastatic melanoma), melanoma cell line NZM40 (NRAS Q16H mutant metastatic melanoma) and melanoma cell line NZM9 (BRAF and NRAS wildtype metastatic melanoma). Mean fluorescent intensities (MFI). 2,000 cells (NZM11), 1,000 cells (NZM40) and 500-1,000 cells (NZM9). Cells were sorted by FACS. Bars represent mean±SD. Results were from a single experiment done in triplicate.
# NZM40 is an adherent cell line which was originally derived from a metastatic melanoma from a patient, in 2004. This human metastatic melanoma is identified with code CBA-1381 from Cell bank Australia. […] Ras is a superfamily of proteins implicated in cell growth, survival and differentiation. NRAS (neuroblastoma rat sarcoma) was the first oncogene recognized in melanoma and mutations in NRAS account for 20% of all melanomas. NRAS mutations primarily occur at position 61 and involve amino acid change from glutamine (Q) to arginine (R), lysine (K), leucine (L) or histidine (H). These mutations block NRAS into a GTP-bound state damaging its GTPase activity (FIG. 1). Patients are usually older (>55 years) with previous UV exposure. See Garcia-Alverez et al., 2021.
# For screening, NZM11, NZM40 and NZM9 cells were suspended at […] dispensed into 96 well plates and left to settle for 48 hours. Then, 10 μL of 10 mM stock solutions in DMSO for the conjugates were diluted with HBSS to afford 400 nM solution. Next, 400 nM compounds and DMSO solutions were diluted 1:1 with MEMα media to afford 200 nM solutions. After 48 hours the media was removed from the 96 well plates and 200 μL of 200 nM conjugates solutions dispensed to each well (in triplicate) and incubated for 5 minutes at 37 °C. After 5 minutes, the media was removed and cells washed with PBS. Then, 100 μL of TrypLE trypsin (ThermoFisher Scientific) were added to each well and incubated for 5 minutes at 37 °C after which, 100 μL of MEMα media were added and samples were sorted through FACS biosort. The FACS results output were represented as the mean of the fluorescence intensities (in arbitrary units) measured for cells sorted in every sample.
# Jurkat cells = assay: FACS uptake of BODIPY FL conjugates in Jurkat cells (Example 3); settings: 200 nM
# Experimental: FIG. 3B: Conjugate compounds coupled to BODIPY FL were tested for uptake using 200 nM each conjugate and 5 minute incubation with immortalized T lymphocyte cell line, Jurkat cells. Mean fluorescent intensities (MFI). 1,000 cells sorted by FACS. Bars represent mean±SD. Results represent a single experiment done in duplicate.
# Materials and methods: Jurkat cells have been previously shown to be defective in the expression of two lipid phosphatases, PTEN (phosphatase and tensin homologue) and SHIP (SH2-domain-containing inositol polyphosphate 5′ phosphatase). The biological implications of SHIP deficiency in T cells remain under evaluation, but the loss of PTEN leads to activation of the phosphatidylinositol 3-kinase (PI3K)-signalling pathway. See Abraham and Weiss, 2004. This activation of PI3K protein is also on NZM40 melanoma cell line, and represents a key mutation for its sustained proliferation. See Silva et al., 2017. For these experiments, Jurkat cells were diluted on RPMI media (supplemented with 10% FBS+1% penicillin-streptomycin) to afford 400 cells/μL. 2 μL of 100 μM stock solutions in DMSO from 138 and pantothenic acid/pantothenic acid derivatives coupled to BODIPY were diluted with 998 μL of RPMI media (supplemented with 10% FBS+1% penicillin-streptomycin) to afford 200 nM solution. 100,000 cells were dispensed to Eppendorf tubes, centrifuged for 1.5 min at 5000 rcf and the supernatant was removed. The cells then were incubated with 500 μL of solutions at 200 nM for 4.5 min and 37 °C. After the incubation time, cells were centrifuged for 1.5 minutes at 5000 rcf. Supernatant was removed and cell pellet re-suspended in 200 μL fresh RPMI media, transferred to 96 well-plate and run on FACS machine, approximately 1,000 cells analysed.
# [3] = test system: HT29 (colorectal cancer cell line); assay: FACS uptake of BODIPY FL conjugates (Example 4); settings: 200 nM, 5 min
# Experimental: FIG. 4A: Conjugate compounds coupled to BODIPY FL were tested for uptake using 200 nM each conjugate and 5 minute incubation with colorectal cancer cell line HT29. Mean fluorescent intensities (MFI). 1,000 cells were sorted by FACS.
# Materials and methods: The HT-29 line was originally isolated from a primary tumour in 1964 from a person. This cell line is positive for expression of N-ras and overexpression of p53 antigen. The human colon adenocarcinoma cell line HT29, is not only used to study the biology of human colon cancers, but it is receiving special interest in studies focused on food digestion and bioavailability due to the ability to express characteristics of mature intestinal cells. The application of this cell line to transport studies of drugs and food compounds is illustrated, especially when the effect of the mucus layer is considered or used as co-culture in combination with Caco-2 cells. These cells have shown a high rate of glucose consumption and therefore, they require high glucose concentration in the medium. Verhoeck et al., 2015.
# For these experiments, HT-29 or MEF cells were diluted on αMEM media (supplemented with 10% FBS+1% penicillin-streptomycin) to give a 250 cells/μL suspension of which 200 μL were aliquoted into each well of a 96 well plate followed by incubation for 24 hours. Next, 2 μL of 100 μM stock solutions in DMSO from the conjugates coupled to BODIPY were diluted with 998 μL of αMEM media to give a 200 nM solution. After 24 hour incubation, media was removed and 200 μL of 138 and pantothenic acid/pantothenic acid derivatives coupled to BODIPY 200 nM solutions were added and cells were incubated for 5 minutes at 37 °C. After 5 minutes, the compounds and DMSO solutions were removed and cells were washed with PBS. Then, 100 μL of TrypLE trypsin were added to each well and incubated for 5 minutes at 37 °C. After this time, 100 μL of DMEM media were added to the wells and samples were sorted through FACS biosort. The studies were completed in duplicated wells.
# [4] = test system: NZM11 (BRAF V600E) melanoma cells; assay: Time course of uptake by FACS (Example 5); settings: 200 nM
# Experimental: FIG. 5A: Time course of uptake for 124, 125, 131, 132 conjugate compounds. Tests were performed using 200 nM each conjugate and 5, 30, or 60 minute incubation with melanoma cell line NZM11 (BRAF V600E mutant metastatic melanoma). Mean fluorescent intensities (MFI), n=300 mean±SD. The cells were sorted by FACS.
# FIG. 5B: Time course of uptake for 124 and 3-azido BODIPY FL. Tests were performed using 200 nM each compound and 1 or 3 hour incubation with melanoma cell line NZM11 (BRAF V600E mutant metastatic melanoma). Mean fluorescent intensities (MFI). n=2000-3000 mean±SD. The cells were sorted by FACS.
# Materials and methods: NZM11 cells were suspended at […] dispensed into 96 well plates and left to settle for 48 hours. 10 μL of 10 mM stock solutions in DMSO from the conjugates coupled to BODIPY were diluted with HBSS to afford 400 nM solution. Then, 400 nM compounds and DMSO solutions were diluted 1:1 with MEMα media to afford 200 nM solutions. After 48 hours the media was removed from the 96 well plates and 200 μL of 200 nM conjugates solutions dispensed to each well (in duplicate) and incubated for 5 minutes, 30 minutes and 60 minutes at 37 °C (for the first test) or 60 minutes and 3 hours (for the second test). After indicated incubation time, the media was removed and cells washed with PBS. 100 μL of TrypLE trypsin (ThermoFisher Scientific) were added to each well and incubated for 6.5 minutes at 37 °C after which, 100 μL of MEMα media were added and samples were sorted through FACS biosort. FACS results output represented the mean of the fluorescence intensities (in arbitrary units) measured for cells sorted in every sample. Uptake rate was calculated by the equation: Uptake rate=(MFI2−MFI1)/(T2−T1)
# whereby: MFI=mean fluorescent intensities; T=time (at which time the sample was taken); Uptake rate units: fluorescence intensities units per minute.
compound,measurement,setting,value
"(R,E)-((4-(3-(2,4-dihydroxy-3,3-dimethylbutanamido)acrylamido)phenyl)thio)(triethyl-phosphaneyl) Gold (I) [Compound 137]","reduction on viability, as compared to auranofin itself","[1]; 10 μM, 48 hours",more than 95%
same,"effect of CJ-15,801/138 on activity",[1]; 138 20 times more concentrated (200 μM),not affected
same,IC50 relative to auranofin,"[1]; NZM11, 48 hours",five times higher than auranofin
same,IC50,"[1]; NZM11, 48 hours, SRB assay",2940 nM and ~2800 nM
same,effect of biotin and pantothenic acid on activity,[1]; vitamins 20 times more concentrated (200 μM),not affected
"CC1=CC(C)=[N+]2C1=Cc1ccc(CCCn3cc(CCNC(=O)/C=C\NC(=O)[C@@H](O)C(C)(C)CO)nn3)n1[B-]2(F)F [Compound 130, (Z)—N-((((3-[4,4-Difluoro-5,7-dimethyl-4-bora-3a,4a-diaza-s-indacene-3-yl]propyl)-1H-1,2,3-triazol-4-yl)ethylamino)-3-oxoprop-1-enyl)-2,4-dihydroxy-3,3-dimethylbutanamide]",uptake (fluorescence intensities),[2],showed selectivity
"CC1=CC(C)=[N+]2C1=Cc1ccc(CCCn3cc(CCNC(=O)/C=C\NC(=O)[C@@H]4OC(C)(C)OCC4(C)C)nn3)n1[B-]2(F)F [Compound 129, (Z)—N-((((3-[4,4-Difluoro-5,7-dimethyl-4-bora-3a,4a-diaza-s-indacene-3-yl]propyl)-1H-1,2,3-triazol-4-yl)ethylamino)-3-oxoprop-1-enyl)-2,2,5,5-tetramethyl-1,3-dioxane-4-carboxamide]",uptake / targeting,Jurkat cells,showed targeting
same,uptake (fluorescence intensities),[2],showed selectivity
same,uptake (fluorescent intensities),[3],higher uptakes than their diol counterparts
"CC1=CC(C)=[N+]2C1=Cc1ccc(CCCN=[N+]=[N-])n1[B-]2(F)F [3-azido BODIPY FL, 3-Azido[4,4-difluoro-5,7-dimethyl-4-bora-3a,4a-diaza-s-indacene-3-yl]propane, reference compound]",times lower intensities than 124,[4]; 1 hour,6 times
same,times lower intensities than 124,[4]; 3 hours,6 times
same,"uptake / intensities, in words","[4]; NZM11, time course",low uptake rate

# From patent publication US20260364186A1, “Chemical Conjugates, Compositions, and Methods of Preparation and Use Thereof” (Transfection Holdings Limited, priority 2022, published 2026)
